“And” between values parts separate entries of the source, which are not always exact repeats. Identical values can stand only once.
Assays:
[1] = Photophysical parameters of fluorophores in glycerol; type: physicochemical; conditions: for B (brightness): calculated using B = Φϵ; for Φ (quantum yield) / λem / λex / decrease in brightness relative to 3 / diminished quantum yield relative to 3: in glycerol; for λabs: maximum absorbance measured in glycerol; for ϵ (extinction coefficient): measured in glycerol; for fluorescence in solvents with increasing concentrations of glycerol: glycerol:H2O mixtures
Protocol: FP analogues (20 μM) were prepared in glycerol:H2O mixture with increasing glycerol concentrations. In addition, fluorescence intensity in 1,4-dioxane was measured to evaluate their response to polarity. Fluorescence measurement was carried out using a Tecan infinite M1000Pro fluorescence microplate reader at excitation and emission wavelengths as indicated. All readings were normalized against the fluorescence intensity in 100% glycerol as 1. Error bars: standard error (n=3).
FP analogues (20 μM) were prepared in glycerol. Spectra were collected with emission wavelength of 420 nm for 1, 525 nm for 2, 620 nm for 3, 3a and 3b. All measurements were carried out using a Tecan infinite M1000Pro fluorescence microplate reader.
FP analogues (20 μM) were prepared in glycerol. Spectra were collected with excitation wavelength of 370 nm for 1, 455 nm for 2, 530 nm for 3 and 3b, 485 nm for 3a. All measurements were carried out using a Tecan infinite M1000Pro fluorescence microplate reader.
FP analogues (10 μM) were prepared in glycerol. Spectra were collected with 10 mm quartz cuvette. All measurements were carried out using Agilent 300 UV-Vis spectrophotometer.
However, the quantum yield (QY, Φ=0.001 for 1 and Φ=0.027 for 2 in glycerol, Table 2) was much lower than that of a GFP (Φ=0.79).

[2] = Photostability of 3, absorbance under laser irradiation; type: physicochemical; conditions: 5 mW laser beam of 543 nm; glycerol and protein aggregates
Source text: The inventors also determined photostability of 3 by measuring its absorbance spectra in glycerol and protein aggregates. […] These photochemical properties make 3 suited for fluorescence microscopy.

[3] = Fluorescence of crystals of 3; type: physicochemical; conditions: crystal
Source text: (a) The crystal of 3 is fluorescent. The crystals were looped out and transferred to a 35 mm glass bottom dish. Images were taken using an inverted Biorad ZOE fluorescent cell imager. […] Reason of the dark image in the bright field is because light of an inverted microscope could not pass through the thick crystal. (b) Crystal structure and packing diagram of 3, with thermal ellipsoids drawn at 50% probability level.
The fluorescence may arise from the tight crystal packing that inhibits TICT of 3 (FIG. 10b).

α-synuclein = target: T1, α-synuclein (Homo sapiens, UniProt P37840); assay: α-synuclein aggregation assay, fluorogenic detection; type: biochemical; conditions: for stoichiometry of fluorescence intensity with α-syn concentration: 70 vs 140 μM α-syn
T1 construct: made in house; host or cells: E. coli (pET29b vector)
Protocol: Aggregation of α-synuclein was carried out using method described in the Supporting Information. Subsequently, half of reaction mixture was loaded on a 96-well plate to measure fluorescence intensity of 3 (a) or ThT (b) for the reaction mixture (T). The other half was centrifuged at 21,000 g for 30 minutes at 4° C. The supernatant fraction (S) and pellet fraction (P, after resuspension with a volume that was equal to that of the S fraction) were loaded on a 96-well plate to measure fluorescence intensity. 10 μM 3 or ThT was also incubated in buffer as a control. Parameters for fluorescence measurement: 3 (Ex=530 nm/Em=600 nm) and ThT (Ex=440 nm/Em=480 nm). Error bars: standard error (n=3).
(§1) HEK293T cultures were seeded at 25% confluency 24 h prior to transfection in 12-well plate for time dependent fluorescence plate reader analysis or 35 mm glass bottom culture dishes (Poly-d-lysine coated, MatTek Corporation). Cells were grown in DMEM medium supplemented with 10% FBS and penicillin-streptomycin antibiotics until they reached 50-60% confluency. Transfection was performed using X-tremeGene™ 9 DNA transfection reagent (Roche). After 24 h of protein expression and co-translational labeling, medium was replaced with fresh DMEM to diffuse out unbound ligands. After 30 min, media was replaced by fresh DMEM medium containing DMSO vehicle or NaAsO2 (50 μM). Cells were incubated for 18 h, 37° C. in a CO2 incubator. Nuclear stain Hoechst 33342 ([…]) was added to the medium 30 min prior to confocal imaging. Aggregation Assays. α-synuclein: Aggregation solution contained 70 or 140 μM α-synuclein in 20 mM HEPES (pH 7.5) and 100 mM NaCl. 10 μM of 3 or ThT was added to the solution at the beginning of reaction. Previous studies have shown that the kinetics of α-synuclein aggregation is unaffected by the addition of ThT. A volume of 150 μL of the mixture was pipetted into a well of clear-bottom 96-well plate, which was subsequently sealed with Mylar plate sealers. The plate was loaded on a Heidolph vibrating platform shaker and shake at 1,350 rpm at 37° C. At indicated time points, fluorescence reading was obtained using a Tecan M1000Pro fluorescence plate reader. Fluorescence intensity was recorded at Ex=530 nm/Em=600 nm for 3 and Ex=450 nm/Em=480 nm for ThT. Each sample was run in triplicate or quadruplicate. SOD1(V31A): Aggregation was carried out with DPBS buffer containing indicated concentrations of EDTA that is used to chelate the structural metal of SOD1. Aggregation solution contained 42 μM SOD1(V31A) or SOD1(V31A)-Halo and […] of 3 was added to the solution at the beginning of reaction. Reaction was carried out quiescently at indicated temperatures. Fluorescence of 3 was measured at Ex=530 nm/Em=600 nm.

SOD1(V31A) = target: T2, SOD1(V31A) (Homo sapiens, UniProt P00441, V32A); assay: Heat-induced SOD1(V31A) aggregation assay, fluorogenic detection; type: biochemical
T2 construct: linker (TEV site)-Halo-His6 (C, cleaved yes); made in house; host or cells: E. coli BL21 DE3* (pET29b; pBAD σ32-I54N co-expressed)
Protocol: (a) SOD1(V31A) aggregation (42 μM) was induced at 59° C. for 30 min in buffer (50 mM Tris-HCl, pH 7.5, 100 mM NaCl, 83 mM EDTA), in the presence of 3 (21 μM). Reaction mixture was illuminated by UV trans-illuminator before and after centrifugation at 21,000 g for 10 min at 4° C. (b) Fluorescence intensity of SOD1(V31A) aggregates (42 μM) in the presence of varying concentrations of 3. 100 μM of 3 in buffer was used as a control. Parameters for fluorescence measurement: 3 (Ex=530 nm/Em=600 nm). Error bars: standard error (n=3).
as §1

HEK293T cells = assay: Stress-induced proteome aggregation in HEK293T cells with MG132 (AggGlow); type: cell-based, human; conditions: 5 μM MG132, 2.5 μM 3
Source text: (§2) Untreated cells remain dark as shown in right panel.
(§3) 3 is used to monitor stress-induced proteome aggregation in HEK293T (human embryonic kidney) cells with a proteasome inhibitor MG132. […] The diffusive fluorescence structure indicates misfolded oligomers and the granular fluorescence structure indicates insoluble aggregates. Similar to this application, 3 was used to monitor stress-induced proteome aggregation in HeLa cells with a heat-shock protein 90 (Hsp90) inhibitor 17-AAG.

HeLa cells = assay: Stress-induced proteome aggregation in HeLa cells with 17-AAG (AggGlow); type: cell-based; conditions: 1 μM 17-AAG, 2.5 μM 3
Source text: as §2, §3

SOD1-A4V-Halo = SOD1-A4V-Halo (Homo sapiens, UniProt P00441, A5V); assay: In vitro heat-induced aggregation of SOD1-A4V-Halo conjugates; type: biochemical
Source text: (B-C) Excitation and emission spectra of 4 (with misfolded oligomers of SOD1-A4V-Halo) and 5 (with insoluble aggregates of SOD1-A4V-Halo).
The inventors installed Halo-tag reactive warhead to 2, resulting in 5.

T2 sequence (P00441 whole entry V32A): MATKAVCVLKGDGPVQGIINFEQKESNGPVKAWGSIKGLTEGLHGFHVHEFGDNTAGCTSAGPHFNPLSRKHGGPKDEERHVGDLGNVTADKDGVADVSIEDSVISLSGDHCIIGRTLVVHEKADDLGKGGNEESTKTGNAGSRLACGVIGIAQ
Chain of SOD1-A4V-Halo (P00441 with tags, fused parts or gaps A5V): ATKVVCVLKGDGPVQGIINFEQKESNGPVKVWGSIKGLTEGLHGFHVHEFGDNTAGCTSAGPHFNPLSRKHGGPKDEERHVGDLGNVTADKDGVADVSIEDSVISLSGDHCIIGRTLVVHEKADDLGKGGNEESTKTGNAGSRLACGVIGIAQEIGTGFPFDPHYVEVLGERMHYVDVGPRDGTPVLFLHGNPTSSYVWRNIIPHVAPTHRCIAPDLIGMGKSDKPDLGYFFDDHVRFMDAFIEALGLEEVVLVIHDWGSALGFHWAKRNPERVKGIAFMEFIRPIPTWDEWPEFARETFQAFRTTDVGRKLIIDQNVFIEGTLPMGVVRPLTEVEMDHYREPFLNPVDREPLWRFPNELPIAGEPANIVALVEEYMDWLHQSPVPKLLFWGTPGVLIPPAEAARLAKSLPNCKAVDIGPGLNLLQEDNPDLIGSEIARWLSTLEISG

SMILES | B (brightness) [1] | Φ (quantum yield) [1] | λem [1] | λex [1] | λabs [1] | ϵ (extinction coefficient) [1] | detection of soluble oligomers of α-syn (α-synuclein) | stoichiometry of fluorescence intensity with α-syn concentration (α-synuclein) | decrease in brightness relative to 3 [1] | diminished quantum yield relative to 3 [1] | fluorescence in solvents with increasing concentrations of glycerol [1] | also measured
CN(C)c1ccc(/C=C2N=C(/C=C/c3ccc(N(C)C)cc3)N(CC(=O)OC(C)(C)C)C\2=O)cc1 [Compound 3, tert-butyl 2-((Z)-4-(4-(dimethylamino)benzylidene)-2-((E)-4-(dimethylamino)styryl)-5-oxo-4,5-dihydro-1H-imidazol-1-yl)acetate] | 8,786 M^−1cm^−1 | 0.22 and 0.221 | 629 nm | 530 nm | 530 nm | 39,049 M^−1cm^−1 | detects soluble oligomers via fluorescence increase | stoichiometric | – | – | – | drop of absorbance at 530 nm on irradiation [2]: 10%; fluorescence of crystals [3]: exhibited fluorescence; fluorescence intensity with mature α-syn fibers (α-synuclein; 70 μM α-syn): 0.52; fluorescence intensity with mature α-syn fibers (α-synuclein; 140 μM α-syn): 1.0; time at which second phase of fluorescence increase was observed (α-synuclein; fiber growth): 20 h; time at which second phase leveled off (α-synuclein; fiber maturation): 36 h; time at which fluorescence reached a plateau (α-synuclein; first phase): 8 h; time at which fluorescence started to increase (α-synuclein; first phase, soluble oligomers): 4 h; kinetics of fluorescence increase versus protein misfolding (tryptophan fluorescence) (SOD1(V31A)): identical to that of protein misfolding; kinetics of fluorescence increase versus turbidity (SOD1(V31A); 54.5° C.): faster than that of turbidity; fraction in which fluorescence signal is found (SOD1(V31A); after centrifugation): primarily found in the fraction of insoluble protein aggregates; quantum yield after aggregation of SOD1-V31A (SOD1(V31A); incubated at 59° C.): 0.22; quantum yield before aggregation of SOD1-V31A (SOD1(V31A); start value): 0.02; fluorescence in stressed cells (HEK293T cells): obvious fluorescence pattern was developed in the cytosol; fluorescence in stressed cells (HeLa cells): obvious fluorescence pattern was developed in the cytosol
CN(C)c1ccc(/C=C/C2=NC(=C\c3ccccc3)/C(=O)N2CC(=O)OC(C)(C)C)cc1 [Compound 3a, tert-butyl 2-((Z)-4-benzylidene-2-((E)-4-(dimethylamino)styryl)-5-oxo-4,5-dihydro-1H-imidazol-1-yl)acetate] | 1,386 M^−1cm^−1 | 0.1 | 621 nm | 485 nm | 500 nm | 13,863 M^−1cm^−1 | – | – | ~5 fold | ~50% | – | –
CN(C)c1ccc(/C=C2N=C(/C=C/c3ccccc3)N(CC(=O)OC(C)(C)C)C\2=O)cc1 [Compound 3b, tert-butyl 2-((Z)-4-(4-(dimethylamino)benzylidene)-5-oxo-2-((E)-styryl)-4,5-dihydro-1H-imidazol-1-yl)acetate] | 2,089 M^−1cm^−1 | 0.232 | 630 nm | 530 nm | 533 nm | 9,004 M^−1cm^−1 | – | – | ~5 fold | does not affect quantum yield | – | –
CC1=N/C(=C\c2ccc(N(C)C)cc2)C(=O)N1CC(=O)OC(C)(C)C [Compound 2, (Z)-tert-butyl 2-(4-(4-(dimethylamino)benzylidene)-2-methyl-5-oxo-4,5-dihydro-1H-imidazol-1-yl)acetate] | 640 M⁻¹ cm⁻¹ | 0.027 | 521 nm | 450 nm | 452 nm | 23,718 M^−1cm^−1 | – | – | – | – | elevated fluorescence | which POI conformations activate fluorescence (SOD1-A4V-Halo): only activates fluorescence when POI forms insoluble aggregates
Cc1ccc2c(c1)sc(-c1ccc(N(C)C)cc1)[n+]2C.[Cl-] [Thioflavin T, thioflavin T, reference compound] | – | – | – | – | – | – | fails to detect soluble oligomers | such stoichiometry was absent | – | – | – | –
CC1=N/C(=C\c2ccc(O)cc2)C(=O)N1CC(=O)OC(C)(C)C [Compound 1, (Z)-tert-butyl 2-(4-(4-(hydroxy)benzylidene)-2-methyl-5-oxo-4,5-dihydro-1H-imidazol-1-yl)acetate] | 20.6 M⁻¹ cm⁻¹ | 0.001 | 429 nm | 370 nm | 376 nm | 20,592 M^−1cm^−1 | – | – | – | – | elevated fluorescence | –

From US20210094922A1, “Dyes for Analysis of Soluble Protein Aggregates or Misfolded Protein Oligomers” (The Penn State Research Foundation, priority 2018, published 2021)
